In patent US9056119B2, “VEGF production promoter” (Kao Corporation, priority 2010, dated 2015):

Tested on: VEGF
Assay: Effect on production of VEGF: amount of VEGF secreted in culture supernatant, determined by ELISA
Type: cell-based
Conditions: normal human newborn preputial epidermal keratinocytes (NHEK), 16 hours, control defined as 1
Description: Normal human newborn preputial epidermal keratinocytes (Kurabo Industries Ltd.: frozen NHEK (F) Lot. No. 061130-902) were used in a test. The cells were inoculated into three six-well microplates at 2×10^4 cells/mL per well. Culture was carried out in Defined keratinocyte-SFM (SFM medium, Gibco) under conditions of 2% CO2 and 37° C. After the cell density reached 50 to 60% confluence, the medium was exchanged for additive-free Defined keratinocyte-SFM medium (SFM (−) medium). The cells were conditioned to the SFM (−) medium for 24 hours, and the medium was then exchanged for an SFM (−) medium supplemented with an arbitrary concentration of the triterpenoid saponin obtained in Example 1. Then, the test was started.
It should be noted that a compound-free SFM (−) medium was used as a negative control. 16 hours after the start of the test, the media were collected, and the amounts of VEGF secreted in the supernatants of the cultures were determined using an ELISA kit (R&D Systems). The amount of VEGF produced in the control was defined as 1, and relative values to the control value were used for evaluation.

| SMILES | Relative value of secreted VEGF amount (20 μg/mL) | Relative value of secreted VEGF amount (100 μg/mL) | Relative value of secreted VEGF amount (200 μg/mL) |
| --- | --- | --- | --- |
| C[C@H](CC(=O)C1OC1(C)C)[C@H]1C(=O)C[C@@]2(C)C3=CCC4C(C)(C)[C@@H](O[C@@H]5OC[C@@H](O)[C@@H](O)C5O)CC[C@@]45C[C@@]35C(O)C[C@]12C (some centres unmarked) [Compound 3, Cimicifugoside H-1] | 1.19 | 2.50 | 2.82 |
| C[C@@H]1C[C@H]2O[C@]3(O[C@H]2C(C)(C)O)[C@H]1[C@@]1(C)CC[C@@]24C[C@@]25CC[C@H](O[C@@H]2OC[C@@H](O)[C@@H](O)C2O)C(C)(C)C5CC=C4[C@]1(C)[C@H]3O (stereo partly drawn) [Compound 2, 24-epi-7,8-Didehydrocimigenol-3-xyloside] | 2.32 | 0.40 | – |
| CC(=O)O[C@H]([C@H]1C[C@@H](C)[C@H]2[C@@](O)(O1)[C@H](O)[C@@]1(C)C3=CCC4C(C)(C)[C@@H](O[C@@H]5OC[C@@H](O)[C@@H](O)C5O)CC[C@@]45C[C@@]35CC[C@]21C)C(C)(C)O (stereo partly drawn) [Compound 1, 7,8-Didehydro-24-O-acetylhydroshengmanol-3-O-β-xyloside] | 2.19 | 3.65 | 5.69 |
